Paper PMC5651349 (Alzheimer's & Dementia : Translational Research & Clinical …, 2016)

Key:
[1] = CSF pharmacokinetics following single dose
[2] = CSF pharmacokinetics following multiple dosing; details: both, human, in vivo
[3] = Plasma pharmacokinetics following single dose; format: in vivo; details: both, human, oral
[4] = Adverse events, single ascending dose
[5] = Adverse events, multiple ascending dose; details: MAD
[6] = Plasma and urine pharmacokinetics following multiple dosing; details: for CL renal: Mean renal clearance

C[C@@]1(c2cc(NC(=O)c3ccc(C#N)cn3)ccc2F)C=CSC(N)=N1 [JNJ-54861911]
Single-dose CSF concentrations ([1]; CSF, 1-mg and 3-mg dose level, elderly): generally below the LOQ | Maximal mean concentrations in CSF ([1]; day 1, single dose, range across 10–150 mg): 2.94 to 22.7 ng/mL | Tmax [2]: ~4 h | half-life [2]: 11.7 to 14.4 h | Tmax [3]: 0.75 to 2 h | half-life [3]: 9 to 16.1 h | Serious AEs (SAEs) ([4]; SAD and MAD studies): no serious AEs | Back pain, participants with AE ([4]; SAD, all JNJ-54861911 participants (10/42)): 23.8% | Headache, participants with AE ([4]; SAD, all JNJ-54861911 participants (16/42)): 38.1% | Tolerability ([4]; single and multiple oral doses between 1 and 150 mg (SAD and MAD studies), healthy participants): well-tolerated | Back pain, participants with AE ([5]; all JNJ-54861911 participants (11/52)): 21.2% | Headache, participants with AE ([5]; all JNJ-54861911 participants (13/52)): 25.0% | Tmax ([6]; both, human, in vivo): 2 to 4 h | half-life ([6]; both, human, in vivo): 14.4 to 18.5 h | CL renal ([6]; human, in vivo, day 1 (single dose)): 1.85 mL/min | CL renal ([6]; human, in vivo, day 14): 1.92 mL/min | Steady state concentrations reached ([6]; plasma, multiple dosing, all cohorts): ≤ 5 days
